# pIC50, pKi: −log10 of the molar value.
# Columns and labels:
# [1] = biological target: Sodium-dependent serotonin transporter (Rattus norvegicus, UniProt P31652); assay: Displacement of [3H]citalopram from SERT in rat brain stem by scintillation counting; type: tissue-based
# [2] = organism: Rattus norvegicus; assay: Selectivity ratio of Ki for DAT in rat caudate-putamen to Ki for SERT in rat brain stem; type: tissue-based
# [3] = biological target: Sodium-dependent dopamine transporter (Rattus norvegicus, UniProt P23977); assay: Displacement of [3H]WIN-35428 from DAT in rat caudate-putamen by scintillation counting; type: tissue-based
# Chain of Sodium-dependent dopamine transporter (P23977 whole entry): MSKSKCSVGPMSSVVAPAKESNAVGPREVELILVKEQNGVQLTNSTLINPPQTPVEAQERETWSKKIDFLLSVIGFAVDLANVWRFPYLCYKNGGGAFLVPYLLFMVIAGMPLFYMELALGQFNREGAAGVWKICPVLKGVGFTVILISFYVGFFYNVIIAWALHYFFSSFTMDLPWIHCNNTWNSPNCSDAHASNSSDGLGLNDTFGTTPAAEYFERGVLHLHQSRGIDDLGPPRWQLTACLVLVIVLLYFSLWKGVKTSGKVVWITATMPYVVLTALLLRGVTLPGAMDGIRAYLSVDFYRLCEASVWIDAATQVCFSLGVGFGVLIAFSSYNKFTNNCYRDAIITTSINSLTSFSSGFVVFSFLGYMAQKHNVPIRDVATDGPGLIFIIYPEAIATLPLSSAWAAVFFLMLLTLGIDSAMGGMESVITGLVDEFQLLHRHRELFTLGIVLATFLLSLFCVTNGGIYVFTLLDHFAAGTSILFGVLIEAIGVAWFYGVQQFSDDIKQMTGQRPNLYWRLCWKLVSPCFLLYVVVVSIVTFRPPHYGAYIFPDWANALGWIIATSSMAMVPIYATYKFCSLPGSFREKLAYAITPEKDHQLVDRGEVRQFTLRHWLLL
# [4] = organism: Rattus norvegicus; assay: Selectivity ratio of Ki for NET in rat brain frontal cortex to Ki for SERT in rat brain stem; type: tissue-based
# [5] = biological target: Transporter (Rattus norvegicus, UniProt Q63380); assay: Displacement of [3H]nisoxetine from NET in rat frontal cortex by scintillation counting; type: tissue-based
# Chain of Transporter (Q63380 whole entry): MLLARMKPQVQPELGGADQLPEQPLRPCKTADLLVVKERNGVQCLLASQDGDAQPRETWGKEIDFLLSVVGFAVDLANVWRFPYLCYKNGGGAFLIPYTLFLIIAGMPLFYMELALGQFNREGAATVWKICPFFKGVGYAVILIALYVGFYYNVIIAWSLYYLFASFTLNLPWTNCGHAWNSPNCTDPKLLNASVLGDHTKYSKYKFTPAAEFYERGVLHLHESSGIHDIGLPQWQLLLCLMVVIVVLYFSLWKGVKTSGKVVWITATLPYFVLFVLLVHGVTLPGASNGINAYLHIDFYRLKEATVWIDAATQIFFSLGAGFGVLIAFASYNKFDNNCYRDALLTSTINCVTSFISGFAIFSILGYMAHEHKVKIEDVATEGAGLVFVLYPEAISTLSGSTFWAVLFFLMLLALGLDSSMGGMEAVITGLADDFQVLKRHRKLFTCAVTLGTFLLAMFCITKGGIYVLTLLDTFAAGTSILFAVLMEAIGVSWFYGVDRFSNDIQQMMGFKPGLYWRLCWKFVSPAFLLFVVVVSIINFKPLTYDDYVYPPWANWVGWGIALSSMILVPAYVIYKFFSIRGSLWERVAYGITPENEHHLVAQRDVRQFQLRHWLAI
# [6] = Displacement of [3H]leucine from Leucine transporter
# Chain of Sodium-dependent serotonin transporter (P31652 whole entry): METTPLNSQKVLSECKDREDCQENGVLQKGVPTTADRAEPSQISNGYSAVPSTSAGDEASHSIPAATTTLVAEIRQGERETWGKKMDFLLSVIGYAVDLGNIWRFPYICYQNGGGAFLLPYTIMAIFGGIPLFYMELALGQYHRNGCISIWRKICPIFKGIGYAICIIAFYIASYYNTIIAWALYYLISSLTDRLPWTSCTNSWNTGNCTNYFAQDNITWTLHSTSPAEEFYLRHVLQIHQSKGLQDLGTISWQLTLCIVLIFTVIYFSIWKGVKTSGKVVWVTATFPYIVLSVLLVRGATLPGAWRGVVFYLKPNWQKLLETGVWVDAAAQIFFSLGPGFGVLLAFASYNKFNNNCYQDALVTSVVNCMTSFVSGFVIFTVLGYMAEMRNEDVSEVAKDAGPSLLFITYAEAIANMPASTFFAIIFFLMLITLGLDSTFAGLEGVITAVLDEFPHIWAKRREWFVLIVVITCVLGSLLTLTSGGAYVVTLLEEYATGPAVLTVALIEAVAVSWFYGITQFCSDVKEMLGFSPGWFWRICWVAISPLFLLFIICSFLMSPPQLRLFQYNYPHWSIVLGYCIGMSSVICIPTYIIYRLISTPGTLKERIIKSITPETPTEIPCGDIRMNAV
Compound,pKi [1],Ratio Ki [2],pKi [3],Ratio Ki [4],pKi [5],pIC50 [6]
CN(C)CCCC1(c2ccc(F)cc2)OCc2cc(-c3ccccc3)ccc21 (configuration not stated),7.40,45,5.74,423,4.77,
CN(C)CCC[C@]1(c2ccc(F)cc2)OCc2cc(Br)ccc21,7.63,57,5.87,915,4.67,3.38
CN(C)CCC[C@]1(c2ccc(F)cc2)OCc2cc(/C=C/c3ccccc3)ccc21,6.95,4.79,6.27,46,5.28,
CN(C)CCCC1(c2ccc(F)cc2)OCc2cc(-c3cccc(C#N)c3)ccc21 (configuration not stated),8.17,110,6.13,743,5.30,
CN(C)CCCC1(c2ccc(F)cc2)OCc2cc(/C=C/c3ccccc3)ccc21 (racemic),8.03,90,6.08,1220,4.94,
CN(C)CCCC1(c2ccc(F)cc2)OCc2c(-c3ccccc3)cccc21 (configuration not stated),8.29,107,6.27,1410,5.15,
CN(C)CCCC1(c2ccc(F)cc2)OCc2cc(-c3cccc(F)c3)ccc21 (configuration not stated),7.66,,,,5.38,
CN(C)CCCC1(c2ccc(F)cc2)OCc2cc(-c3cc(F)cc(F)c3)ccc21 (configuration not stated),6.97,,,,5.70,
CN(C)CCCC1(c2ccc(F)cc2)OCc2cc(-c3ccc(Cl)c(Cl)c3)ccc21 (configuration not stated),6.84,18,5.60,89,4.90,
CN(C)CCCC1(c2ccc(F)cc2)OCc2cc(I)ccc21 (configuration not stated),8.85,,5.87,,,
CN(C)CCCC1(c2ccc(F)cc2)OCc2cc(CCc3ccccc3)ccc21 (configuration not stated),7.42,,,,5.33,
CN(C)CCCC1(c2ccc(F)cc2)OCc2cc(/C=C/c3ccc(Cl)cc3)ccc21 (configuration not stated),7.47,60,5.70,747,4.60,
CN(C)CCCC1(c2ccc(F)cc2)OCc2cc(Br)ccc21 (racemic),8.98,,,,4.55,
CN(C)CCC[C@@]1(c2ccc(F)cc2)OCc2cc(Br)ccc21,9.04,2450,5.65,9140,5.08,3.40
COc1cccc(-c2ccc3c(c2)COC3(CCCN(C)C)c2ccc(F)cc2)c1 (configuration not stated),8.04,,,,5.58,
CN(C)CCCC1(c2ccc(F)cc2)OCc2c(/C=C/c3ccccc3)cccc21 (configuration not stated),7.33,25,5.94,256,4.92,
CN(C)CCCC1(c2ccc(F)cc2)OCc2c(Br)cccc21 (configuration not stated),8.41,56,6.67,1590,5.21,
CN(C)CCC[C@@]1(c2ccc(F)cc2)OCc2cc(C#N)ccc21 [ESCITALOPRAM],,,,,,2.81
CN(C)CCCC1(c2ccc(F)cc2)OCc2cc(-c3cccc(Cl)c3)ccc21 (configuration not stated),7.21,23,5.86,93,5.24,
CN(C)CCCC1(c2ccc(F)cc2)OCc2cc(-c3cccc(N)c3)ccc21 (configuration not stated),7.98,,5.77,,,
CN(C)CCCC1(c2ccc(F)cc2)OCc2c(-c3cccc(F)c3)cccc21 (configuration not stated),8.09,60,6.31,933,5.12,
CN(C)CCC[C@@]1(c2ccc(F)cc2)OCc2cc(/C=C/c3ccccc3)ccc21,7.97,171,5.74,1590,4.77,

# Source: ChEMBL document CHEMBL1212898 (J Med Chem, 2010)
